# Legend:
# [1] = tested on: P-ERK (ERK phospho-T202/Y204) in A375 cells expressing V600E mutated BRAF; test: HTRF assay for P-ERK determination in A375 cells (BRAF inhibition); type: cell-based; conditions: Homo sapiens, A-375, P-ERK level, drug incubation 1 hour, DMSO = 100%, 10 μM Dabrafenib = 0%
# Description: (§1) A375 is a cellular cancer model expressing V600E mutated BRAF and HCT116 a cellular cancer model expressing WT BRAF. First generation BRAF inhibitors such as e.g. dabrafenib induce a paradox effect on tumour cells in that they inhibit the growth of V600E mutated BRAF cells (such as e.g. A375), while they activate growth in WT BRAF cells (such as e.g. HCT 116). ERK 1,2 phosphorylation (terminal member of the phosphorylation cascade of the MAPK pathway) is hereafter reported as main readout for the activation status of the MAPK pathway. DMEM no-phenol red medium supplemented with L-glutamine was purchased from (Thermo Fisher Scientific). Fetal bovine serum (FBS) was purchased from VWR. Advanced ERK phospho-T202/Y204 kit—10,000 tests was purchased from Cisbio cat #64AERPEH. A375 (catalog #CRL-1619) and HCT116 (catalog #CCL-247) cells were originally obtained from American type Culture Collection (ATCC) and banked by the Roche repository. 384-Well microplates utilized were purchased from Greiner Bio-One, 384-well, (With Lid, HiBase, Low volume cat 784-080).
# (§2) Prior to the assay, A375 and HCT116 cell lines are maintained in DMEM no-phenol red medium supplemented with 10% fetal bovine serum (FBS). Following compound treatment, P-ERK levels are determined by measuring FRET fluorescence signal induced by selective binding of 2 antibodies provided in the mentioned kit (Cisbio cat #64AERPEH) on ERK protein when phosphorylated at Thr202/Tyr204. Briefly, 8000 cells/well in 12 μl media/well are plated in the 384-well plate and left overnight in the incubator (at 37° C. with 5% CO2-humidified atmosphere), the following day the plate is treated in duplicate with test compounds, dabrafenib and PLX8394 (the latter two as controls) at the following final drug concentrations: 10 μM-3 μM 1 μM-0.3 μM-0.1 μM-0.03 μM-0, 01 μM-0.003 μM-0.001 μM, all wells are subjected to DMSO normalization and drug incubation occurs for 1 hour. Then, […] of a 4× lysis buffer supplied with the kit are added to the wells, the plate is then centrifuged for 30 second (3000 rpm) and incubated on a plate shaker for 1 h at rt.
# (§3) At the end of the incubation 4 μL/well of advanced P-ERK antibody solution (prepared according to manufacturer's instruction) followed by 4 μL/well of criptate P-ERK antibody solution (prepared according to manufacturer's instruction) (Cisbio cat #64AERPEH) are added to test wells.
# (§4) In order to allow proper data normalization control wells non drug treated reported in the following table are always included in each plate (according to manufacturer's instruction):
# (§5) The plate is then centrifuged at 3000 rpm for 30 second, sealed to prevent evaporation and incubated overnight in the dark at room temperature.
# (§6) The plate is then analyzed and fluorescence emission value collected through a Pherastast FSX (BMG Labtech) apparatus at […].
# (§7) The obtained fluorescence values are processed according to the formula Ratio=[…]*10000 then the average of the ratio on the blank is subtracted to all values.
# Data are normalized in the case of A375 cells (BRAF inhibition) considering the average of the ratio (blank subtracted) derived by DMSO only treated cells as 100% and by considering the average of the ratio (blank subtracted) derived by 10 μM Dabrafenib treated cells as 0%. Mean of the normalized points are fitted with sigmoidal curve and IC50 determined.
# BRAF (V600E) = BRAF (V600E) (Homo sapiens, UniProt P15056, V600E); test: KD BRAF (V600E) (Table 1); type: binding
# Sequence of BRAF (V600E) (P15056 whole entry V600E): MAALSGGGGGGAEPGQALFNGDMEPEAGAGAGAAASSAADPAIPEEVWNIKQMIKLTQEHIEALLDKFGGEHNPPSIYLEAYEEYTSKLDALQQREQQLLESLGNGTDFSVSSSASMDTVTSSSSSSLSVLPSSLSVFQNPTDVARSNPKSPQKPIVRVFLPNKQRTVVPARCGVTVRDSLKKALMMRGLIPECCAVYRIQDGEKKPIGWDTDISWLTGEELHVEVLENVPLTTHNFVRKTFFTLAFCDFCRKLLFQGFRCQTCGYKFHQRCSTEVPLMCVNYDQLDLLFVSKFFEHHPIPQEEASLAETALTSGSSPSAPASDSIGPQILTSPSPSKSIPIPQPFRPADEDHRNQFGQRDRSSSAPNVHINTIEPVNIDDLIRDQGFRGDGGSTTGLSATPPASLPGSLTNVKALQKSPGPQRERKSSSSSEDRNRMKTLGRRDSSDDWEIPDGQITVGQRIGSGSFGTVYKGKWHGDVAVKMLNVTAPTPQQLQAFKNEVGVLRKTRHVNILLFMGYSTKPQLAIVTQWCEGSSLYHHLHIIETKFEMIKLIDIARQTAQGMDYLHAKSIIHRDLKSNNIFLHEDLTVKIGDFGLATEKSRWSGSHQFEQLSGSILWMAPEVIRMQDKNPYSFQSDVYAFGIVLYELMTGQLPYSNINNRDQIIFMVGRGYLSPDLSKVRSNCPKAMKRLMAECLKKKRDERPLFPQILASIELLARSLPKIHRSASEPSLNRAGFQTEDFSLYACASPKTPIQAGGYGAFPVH
# [2] = tested on: P-ERK (ERK phospho-T202/Y204) in HCT116 cells expressing WT BRAF; test: HTRF assay for P-ERK determination in HCT116 cells (BRAF activation); type: cell-based; conditions: Homo sapiens, HCT-116, drug incubation 1 hour, concentration giving 50% of the maximum activation achieved by Dabrafenib
# Description: as §1, §2, §3, §4, §5, §6, §7
# Data are normalized in the case of HCT116 cells (BRAF activation) considering the average of the ratio (blank subtracted) derived by DMSO only treated cells as 0% and by considering the average of the ratio (blank subtracted) derived by Dabrafenib treated cells at the concentration which provides the highest signal as 100%. Individual points are fitted with either sigmoidal or bell shape curves. The EC50 is the concentration at which activation equal to 50% of the maximum activation achieved by Dabrafenib is obtained.
# BRAF (wt) = BRAF (wt) (Homo sapiens, UniProt P15056); test: KD BRAF (wt) (Table 1); type: binding
# Sequence of BRAF (wt) (P15056 whole entry): as the sequence (P15056 whole entry V600E) above, with E600V counted along it
IC50 [1],Kd (BRAF (V600E)),EC50 [2],Kd (BRAF (wt)),Structure (SMILES)
0.0868 µM,0.0672 µM,≥ 10 µM,0.0117 µM,"CC(C)(C)OC(=O)N1CCC(CCn2cnc3ccc(Oc4c(F)ccc(NS(=O)(=O)C5CCC5)c4C#N)cc3c2=O)CC1 [Example 21, tert-butyl 4-[2-[6-[2-cyano-3-(cyclobutylsulfonylamino)-6-fluoro-phenoxy]-4-oxo-quinazolin-3-yl]ethyl]piperidine-1-carboxylate]"
0.00699 µM,0.0284 µM,6.86 µM,0.0163 µM,"CCN(C)S(=O)(=O)Nc1ccc(F)c(Oc2ccc3ncn(CCN4CCN(C(=O)OC(C)(C)C)CC4)c(=O)c3c2)c1C#N [Example 27, tert-butyl 4-[2-[6-[2-cyano-3-[[ethyl(methyl)sulfamoyl]amino]-6-fluoro-phenoxy]-4-oxo-quinazolin-3-yl]ethyl]piperazine-1-carboxylate]"
≥ 10 µM,0.403 µM,≥ 10 µM,0.137 µM,"CCN(C)S(=O)(=O)Nc1cccc(Nc2ccc3ncn(CC(=O)NCCOC)c(=O)c3c2)c1C#N [Example 31, 2-[6-[2-cyano-3-[[ethyl(methyl)sulfamoyl]amino]anilino]-4-oxo-quinazolin-3-yl]-N-(2-methoxyethyl)acetamide]"
0.428 µM,0.813 µM,≥ 10 µM,0.21 µM,"CCN(C)S(=O)(=O)Nc1cccc(Nc2ccc3ncn(CC4CCN(C(=O)OC(C)(C)C)CC4)c(=O)c3c2)c1C#N [Example 32, tert-butyl 4-[[6-[2-cyano-3-[[ethyl(methyl)sulfamoyl]amino]anilino]-4-oxo-quinazolin-3-yl]methyl]piperidine-1-carboxylate]"
0.576 µM,0.0929 µM,≥ 10 µM,0.0456 µM,"CCN(C)S(=O)(=O)Nc1cccc(Nc2ccc3ncn(CC4CCN(C(C)=O)CC4)c(=O)c3c2)c1C#N [Example 33, 3-[(1-acetyl-4-piperidyl)methyl]-6-[2-cyano-3-[[ethyl(methyl)sulfamoyl]amino]anilino]-4-oxo-quinazoline]"
0.287 µM,0.247 µM,≥ 10 µM,0.0919 µM,"CCN(C)S(=O)(=O)Nc1cccc(Nc2ccc3ncn(CCOCCOCCNC(=O)OC(C)(C)C)c(=O)c3c2)c1C#N [Example 34, tert-butyl N-[2-[2-[2-[6-[2-cyano-3-[[ethyl(methyl)sulfamoyl]amino]anilino]-4-oxo-quinazolin-3-yl]ethoxy]ethoxy]ethyl]carbamate]"

# The next lines start with the molecule.
Structure (SMILES),IC50 [1],Kd (BRAF (V600E)),EC50 [2],Kd (BRAF (wt))
"CC(C)(C)OC(=O)N1CCC(CCn2cnc3ccc(Oc4c(F)ccc(NS(=O)(=O)N5CCCCC5)c4C#N)cc3c2=O)CC1 [Example 18, tert-butyl 4-[2-[6-[2-cyano-6-fluoro-3-(1-piperidylsulfonylamino)phenoxy]-4-oxo-quinazolin-3-yl]ethyl]piperidine-1-carboxylate]",0.158 µM,0.0575 µM,1.46 µM,0.0454 µM
"CN(CCCn1cnc2ccc(Oc3c(F)ccc(NS(=O)(=O)N4CCCC4)c3C#N)cc2c1=O)C(=O)OC(C)(C)C [Example 19, tert-butyl N-[3-[6-[2-cyano-6-fluoro-3-(pyrrolidin-1-ylsulfonylamino)phenoxy]-4-oxo-quinazolin-3-yl]propyl]-N-methyl-carbamate]",0.103 µM,0.00231 µM,≥ 10 µM,0.00093 µM
"CN(CCCn1cnc2ccc(Oc3c(F)ccc(NS(=O)(=O)C4CCCC4)c3C#N)cc2c1=O)C(=O)OC(C)(C)C [Example 20, tert-butyl N-[3-[6-[2-cyano-3-(cyclopentylsulfonylamino)-6-fluoro-phenoxy]-4-oxo-quinazolin-3-yl]propyl]-N-methyl-carbamate]",0.436 µM,0.0092 µM,≥ 10 µM,0.00334 µM
"CC(C)(C)OC(=O)N1CCCC(CCn2cnc3ccc(Oc4c(F)ccc(NS(=O)(=O)C5CCCC5)c4C#N)cc3c2=O)C1 (centres unmarked) [Example 22, tert-butyl 3-[2-[6-[2-cyano-3-(cyclopentylsulfonylamino)-6-fluoro-phenoxy]-4-oxo-quinazolin-3-yl]ethyl]piperidine-1-carboxylate]",0.155 µM,0.0289 µM,≥ 10 µM,0.0279 µM
"CC(C)(C)OC(=O)N1CCCC(CCn2cnc3ccc(Oc4c(F)ccc(NS(=O)(=O)N5CCCC5)c4C#N)cc3c2=O)C1 (centres unmarked) [Example 23, tert-butyl 3-[2-[6-[2-cyano-6-fluoro-3-(pyrrolidin-1-ylsulfonylamino)phenoxy]-4-oxo-quinazolin-3-yl]ethyl]piperidine-1-carboxylate]",0.0497 µM,0.0102 µM,2.3 µM,0.00923 µM
"CC(=O)N(C)CCCn1cnc2ccc(Oc3c(F)ccc(NS(=O)(=O)C4CCCC4)c3C#N)cc2c1=O [Example 24, N-[3-[6-[2-cyano-3-(cyclopentylsulfonylamino)-6-fluoro-phenoxy]-4-oxo-quinazolin-3-yl]propyl]-N-methyl-acetamide]",0.0504 µM,0.00076 µM,≥ 10 µM,0.00042 µM
"CC(C)(C)OC(=O)N1CCN(CCn2cnc3ccc(Oc4c(F)ccc(NS(=O)(=O)C5CCCC5)c4C#N)cc3c2=O)CC1 [Example 25, tert-butyl 4-[2-[6-[2-cyano-3-(cyclopentylsulfonylamino)-6-fluoro-phenoxy]-4-oxo-quinazolin-3-yl]ethyl]piperazine-1-carboxylate]",0.00763 µM,0.00706 µM,0.802 µM,0.00414 µM
"CC(=O)N(C)CCCn1cnc2ccc(Oc3c(F)ccc(NS(=O)(=O)N4CCCC4)c3C#N)cc2c1=O [Example 26, N-[3-[6-[2-cyano-6-fluoro-3-(pyrrolidin-1-ylsulfonylamino)phenoxy]-4-oxo-quinazolin-3-yl]propyl]-N-methyl-acetamide]",0.0205 µM,0.00055 µM,4.26 µM,0.00032 µM
"CN(Cc1ccc(CCCn2cnc3ccc(Oc4c(F)ccc(NS(=O)(=O)C5CCCC5)c4C#N)cc3c2=O)cc1)C(=O)OC(C)(C)C [Example 28, tert-butyl N-[[4-[3-[6-[2-cyano-3-(cyclopentylsulfonylamino)-6-fluoro-phenoxy]-4-oxo-quinazolin-3-yl]propyl]phenyl]methyl]-N-methyl-carbamate]",0.144 µM,0.0337 µM,0.836 µM,0.0196 µM
"CCC(C)S(=O)(=O)Nc1ccc(F)c(Oc2ccc3ncn(CCN4CCN(C(=O)OC(C)(C)C)CC4)c(=O)c3c2)c1C#N (centres unmarked) [Example 29, tert-butyl 4-[2-[6-[2-cyano-6-fluoro-3-(sec-butylsulfonylamino)phenoxy]-4-oxo-quinazolin-3-yl]ethyl]piperazine-1-carboxylate]",0.0181 µM,0.0192 µM,3.67 µM,0.00743 µM
"CN(Cc1ccc(CCCn2cnc3ccc(Oc4c(F)ccc(NS(=O)(=O)N5CCCC5)c4C#N)cc3c2=O)cc1)C(=O)OC(C)(C)C [Example 30, tert-butyl N-[[4-[3-[6-[2-cyano-6-fluoro-3-(pyrrolidin-1-ylsulfonylamino)phenoxy]-4-oxo-quinazolin-3-yl]propyl]phenyl]methyl]-N-methyl-carbamate]",0.0524 µM,0.0121 µM,0.455 µM,0.00615 µM

# From patent publication US12570615B2, “Quinazolinone derivatives” (Hoffmann-La Roche Inc., priority 2021, dated 2026)
